ChEMBL document CHEMBL3044763, “Inhibitory Activities of Rhodanine Derivatives on Plant Growth” (Biosci Biotechnol Biochem, 1996)

Legend:
[1] = Toxicity in Mus musculus ddY (mouse) assessed as mortality at 6 mg/kg, ip after 1 day; assay type: organism-based; parameters: dose 6 mg/kg, route intraperitoneal; conditions: in vivo
[2] = Toxicity in Mus musculus ddY (mouse) assessed as mortality at 3 mg/kg, ip after 1 day; assay type: organism-based; parameters: dose 3 mg/kg, route intraperitoneal; conditions: in vivo
[3] = tested on: Brassica rapa subsp. oleifera; test: Growth inhibition of Brassica rapa subsp. oleifera assessed as chlorophyll b level at 5 x 10^-5 M after 7 days; assay type: functional; parameters: scale not given: the % may be the effect or the level left
[4] = Toxicity in Mus musculus ddY (mouse) assessed as mortality at 8 mg/kg, ip after 2 days; assay type: organism-based; parameters: dose 8 mg/kg, route intraperitoneal; conditions: in vivo
Daucus carota [5] = test: Growth inhibition of Daucus carota (carrot) assessed as root growth at 3 x 10^-5 M after 7 days; assay type: functional
[6] = Toxicity in Mus musculus ddY (mouse) assessed as mortality at 7 mg/kg, ip after 2 days; assay type: organism-based; parameters: dose 7 mg/kg, route intraperitoneal; conditions: in vivo
[7] = Toxicity in Mus musculus ddY (mouse) assessed as mortality at 3 mg/kg, ip after 4 days; assay type: organism-based; parameters: dose 3 mg/kg, route intraperitoneal; conditions: in vivo
[8] = Toxicity in Mus musculus ddY (mouse) assessed as mortality at 5 mg/kg, ip after 1 day; assay type: organism-based; parameters: dose 5 mg/kg, route intraperitoneal; conditions: in vivo
[9] = Toxicity in Mus musculus ddY (mouse) assessed as mortality at 5 mg/kg, ip after 7 days; assay type: organism-based; parameters: dose 5 mg/kg, route intraperitoneal; conditions: in vivo
Sesamum indicum [10] = test: Growth inhibition of Sesamum indicum (sesame) assessed as root growth at 1 x 10^-4 M after 7 days; assay type: functional
[11] = Toxicity in Mus musculus ddY (mouse) assessed as mortality at 7 mg/kg, ip after 4 days; assay type: organism-based; parameters: dose 7 mg/kg, route intraperitoneal; conditions: in vivo
[12] = Toxicity in Mus musculus ddY (mouse) assessed as mortality at 3 mg/kg, ip after 5 days; assay type: organism-based; parameters: dose 3 mg/kg, route intraperitoneal; conditions: in vivo
Lactuca sativa [13] = test: Growth inhibition of Lactuca sativa (lettuce) assessed as root growth at 3 x 10^-4 M after 7 days; assay type: functional
[14] = tested on: Brassica rapa subsp. oleifera; test: Growth inhibition of Brassica rapa subsp. oleifera assessed as root growth at 3 x 10^-4 M after 7 days; assay type: functional
[15] = tested on: Brassica rapa subsp. oleifera; test: Growth inhibition of Brassica rapa subsp. oleifera assessed as chlorophyll a level at 3 x 10^-4 M after 7 days; assay type: functional; parameters: scale not given: the % may be the effect or the level left
[16] = tested on: Brassica rapa subsp. oleifera; test: Growth inhibition of Brassica rapa subsp. oleifera assessed as total chlorophyll level at 5 x 10^-5 M after 7 days; assay type: functional; parameters: scale not given: the % may be the effect or the level left
[17] = Toxicity in Mus musculus ddY (mouse) assessed as mortality at 5 mg/kg, ip after 2 days; assay type: organism-based; parameters: dose 5 mg/kg, route intraperitoneal; conditions: in vivo
[18] = Toxicity in Mus musculus ddY (mouse) assessed as mortality at 4 mg/kg, ip after 5 days; assay type: organism-based; parameters: dose 4 mg/kg, route intraperitoneal; conditions: in vivo
[19] = Toxicity in Mus musculus ddY (mouse) assessed as mortality at 5 mg/kg, ip after 5 days; assay type: organism-based; parameters: dose 5 mg/kg, route intraperitoneal; conditions: in vivo
Lactuca sativa [20] = test: Growth inhibition of Lactuca sativa (lettuce) assessed as root growth at 5 x 10^-5 M after 7 days; assay type: functional
[21] = Toxicity in Mus musculus ddY (mouse) assessed as mortality at 6 mg/kg, ip after 4 days; assay type: organism-based; parameters: dose 6 mg/kg, route intraperitoneal; conditions: in vivo
[22] = Toxicity in Mus musculus ddY (mouse) assessed as mortality at 3 mg/kg, ip after 3 days; assay type: organism-based; parameters: dose 3 mg/kg, route intraperitoneal; conditions: in vivo
Sesamum indicum [23] = test: Growth inhibition of Sesamum indicum (sesame) assessed as root growth at 3 x 10^-5 M after 7 days; assay type: functional
[24] = Toxicity in Mus musculus ddY (mouse) assessed as mortality at 5 mg/kg, ip after 6 days; assay type: organism-based; parameters: dose 5 mg/kg, route intraperitoneal; conditions: in vivo
[25] = Toxicity in Mus musculus ddY (mouse) assessed as mortality at 6 mg/kg, ip after 2 days; assay type: organism-based; parameters: dose 6 mg/kg, route intraperitoneal; conditions: in vivo
[26] = Toxicity in Mus musculus ddY (mouse) assessed as mortality at 4 mg/kg, ip after 3 days; assay type: organism-based; parameters: dose 4 mg/kg, route intraperitoneal; conditions: in vivo
Echinochloa esculenta [27] = test: Growth inhibition of Echinochloa esculenta assessed as root growth at 1 x 10^-4 M after 7 days; assay type: functional
[28] = tested on: Brassica rapa subsp. oleifera; test: Growth inhibition of Brassica rapa subsp. oleifera assessed as chlorophyll a level at 3 x 10^-5 M after 7 days; assay type: functional; parameters: scale not given: the % may be the effect or the level left
Echinochloa esculenta [29] = test: Growth inhibition of Echinochloa esculenta assessed as root growth at 5 x 10^-5 M after 7 days; assay type: functional
[30] = tested on: Brassica rapa subsp. oleifera; test: Growth inhibition of Brassica rapa subsp. oleifera assessed as chlorophyll a level at 5 x 10^-5 M after 7 days; assay type: functional; parameters: scale not given: the % may be the effect or the level left
[31] = tested on: Brassica rapa subsp. oleifera; test: Growth inhibition of Brassica rapa subsp. oleifera assessed as chlorophyll b level at 3 x 10^-5 M after 7 days; assay type: functional; parameters: scale not given: the % may be the effect or the level left
[32] = Toxicity in Mus musculus ddY (mouse) assessed as mortality at 4 mg/kg, ip after 7 days; assay type: organism-based; parameters: dose 4 mg/kg, route intraperitoneal; conditions: in vivo
[33] = Toxicity in Mus musculus ddY (mouse) assessed as mortality at 6 mg/kg, ip after 7 days; assay type: organism-based; parameters: dose 6 mg/kg, route intraperitoneal; conditions: in vivo
Echinochloa esculenta [34] = test: Growth inhibition of Echinochloa esculenta assessed as root growth at 3 x 10^-5 M after 7 days; assay type: functional
[35] = Toxicity in Mus musculus ddY (mouse) assessed as mortality at 7 mg/kg, ip after 1 day; assay type: organism-based; parameters: dose 7 mg/kg, route intraperitoneal; conditions: in vivo
Sesamum indicum [36] = test: Growth inhibition of Sesamum indicum (sesame) assessed as root growth at 3 x 10^-4 M after 7 days; assay type: functional
[37] = Toxicity in ip dosed Mus musculus ddY (mouse) assessed as mortality after 1 to 7 days; assay type: organism-based; conditions: in vivo
[38] = Toxicity in Mus musculus ddY (mouse) assessed as mortality at 7 mg/kg, ip after 6 days; assay type: organism-based; parameters: dose 7 mg/kg, route intraperitoneal; conditions: in vivo
[39] = Toxicity in Mus musculus ddY (mouse) assessed as mortality at 7 mg/kg, ip after 3 days; assay type: organism-based; parameters: dose 7 mg/kg, route intraperitoneal; conditions: in vivo
[40] = Toxicity in Mus musculus ddY (mouse) assessed as mortality at 8 mg/kg, ip after 7 days; assay type: organism-based; parameters: dose 8 mg/kg, route intraperitoneal; conditions: in vivo
[41] = Toxicity in Mus musculus ddY (mouse) assessed as mortality at 5 mg/kg, ip after 4 days; assay type: organism-based; parameters: dose 5 mg/kg, route intraperitoneal; conditions: in vivo
Daucus carota [42] = test: Growth inhibition of Daucus carota (carrot) assessed as root growth at 3 x 10^-4 M after 7 days; assay type: functional
[43] = Toxicity in Mus musculus ddY (mouse) assessed as mortality at 8 mg/kg, ip after 3 days; assay type: organism-based; parameters: dose 8 mg/kg, route intraperitoneal; conditions: in vivo
[44] = tested on: Brassica rapa subsp. oleifera; test: Growth inhibition of Brassica rapa subsp. oleifera assessed as total chlorophyll level at 3 x 10^-5 M after 7 days; assay type: functional; parameters: scale not given: the % may be the effect or the level left
[45] = tested on: Brassica rapa subsp. oleifera; test: Growth inhibition of Brassica rapa subsp. oleifera assessed as chlorophyll b level at 1 x 10^-4 M after 7 days; assay type: functional; parameters: scale not given: the % may be the effect or the level left
Daucus carota [46] = test: Growth inhibition of Daucus carota (carrot) assessed as root growth at 1 x 10^-4 M after 7 days; assay type: functional
[47] = Toxicity in Mus musculus ddY (mouse) assessed as mortality at 6 mg/kg, ip after 3 days; assay type: organism-based; parameters: dose 6 mg/kg, route intraperitoneal; conditions: in vivo
Allium tuberosum [48] = test: Growth inhibition of Allium tuberosum assessed as root growth at 1 x 10^-4 M after 10 days; assay type: functional
[49] = tested on: Brassica rapa subsp. oleifera; test: Growth inhibition of Brassica rapa subsp. oleifera assessed as root growth at 3 x 10^-5 M after 7 days; assay type: functional
[50] = tested on: Brassica rapa subsp. oleifera; test: Growth inhibition of Brassica rapa subsp. oleifera assessed as total chlorophyll level at 3 x 10^-4 M after 7 days; assay type: functional; parameters: scale not given: the % may be the effect or the level left
Allium tuberosum [51] = test: Growth inhibition of Allium tuberosum assessed as root growth at 5 x 10^-5 M after 10 days; assay type: functional
[52] = Toxicity in Mus musculus ddY (mouse) assessed as mortality at 3 mg/kg, ip after 6 days; assay type: organism-based; parameters: dose 3 mg/kg, route intraperitoneal; conditions: in vivo

NN1C(=O)CSC1=S [AMINORHODANINE]
mortality at 24 h [1]: 60%
mortality at 24 h [2]: 0%
Activity [3]: 4.36%
mortality at 48 h [4]: 100%
Activity (Daucus carota [5]): 11.2 mm
mortality at 48 h [6]: 80%
mortality at 96 h [7]: 0%
mortality at 24 h [8]: 60%
mortality at 168 h [9]: 60%
Activity (Sesamum indicum [10]): 3.2 mm
mortality at 96 h [11]: 80%
mortality at 120 h [12]: 0%
Activity (Lactuca sativa [13]): 0 mm
Activity [14]: 3.5 mm
Activity [15]: 7.76%
Activity [16]: 13.57%
mortality at 48 h [17]: 60%
mortality at 120 h [18]: 20%
mortality at 120 h [19]: 60%
Activity (Lactuca sativa [20]): 5.9 mm
mortality at 96 h [21]: 60%
mortality at 72 h [22]: 0%
Activity (Sesamum indicum [23]): 9.5 mm
mortality at 144 h [24]: 60%
mortality at 48 h [25]: 60%
mortality at 72 h [26]: 20%
Activity (Echinochloa esculenta [27]): 10.8 mm
Activity [28]: 11.07%
Activity (Echinochloa esculenta [29]): 11.2 mm
Activity [30]: 9.22%
Activity [31]: 4.78%
mortality at 168 h [32]: 20%
mortality at 168 h [33]: 60%
Activity (Echinochloa esculenta [34]): 16 mm
mortality at 24 h [35]: 80%
Activity (Sesamum indicum [36]): 0 mm
LD50 [37]: 5.07 mg/kg
mortality at 144 h [38]: 80%
mortality at 72 h [39]: 80%
mortality at 168 h [40]: 100%
mortality at 96 h [41]: 60%
Activity (Daucus carota [42]): 0 mm
mortality at 72 h [43]: 100%
Activity [44]: 15.83%
Activity [45]: 3.82%
Activity (Daucus carota [46]): 2.4 mm
mortality at 72 h [47]: 60%
Activity (Allium tuberosum [48]): 5.1 mm
Root length [49]: 30.8 mm
Activity [50]: 11.16%
Activity (Allium tuberosum [51]): 8.6 mm
mortality at 144 h [52]: 0%
